“And” between values parts separate entries of the source, which are not always exact repeats. Equal entries are not always repeated.
Assays:
[1] = system: antibody for angiotensin I; assay: Radioimmunoassay standard reactions: competitive binding of labeled and unlabeled angiotensin I to antibody; design: species or system rabbit
Experimental: Antiserum (Rabbit) 1.4 μl
A series of standard prereaction mixtures was prepared by transferring 0.1 ml aliquots of standard unlabeled angiotensin I solutions from the standard vials to a series of reaction vials. Standard prereaction mixtures were prepared using the standard solutions containing 6, 3, 2, 1, 0.8, 0.6, and 0.3 ng/ml unlabeled angiotensin I, respectively. Two blank prereaction mixtures were prepared by adding 0.1 ml pH 9.0 buffer to a reaction vial.
Reaction mixtures were prepared and radioimmunoassay commenced by adding antiserum solution (0.1 ml) to each of the base unknown, generated unknown, standard, and blank prereaction mixtures. Antiserum was withheld from one reaction vial used as a control. The reaction mixtures contained in each vial were then mixed gently on a vortex and incubated for 1 hour at 37°C. After incubation was completed, each reaction vial was taken out of the water bath, the cap removed and an anion exchange resin strip immersed in the contents of the vial. The vial was then recapped and placed on a rotator for 30 minutes at room temperature (21°-23°C.). At the end of 30 minutes, the resin strip was removed from each vial and placed in an empty vial. Radioactivity of both the strip containing the unbound ("free") angiotensin I and the supernatant liquid containing the antibody bound ("bound") angiotensin I was counted, and the percentage bound angiotensin I was determined from the following relationship: [formula]
From the data of Tables I and II, a graph was prepared in which the percent bound angiotensin I was plotted against nanograms of unlabeled standard angiotensin I contained in the standard reaction solutions for the two sets of standard reactions. FIG. 1 is that graph. […]
Standard radioimmunoassay reactions were carried out using duplicate blanks and standard solutions respectively containing 0.03, 0.06, 0.08, 0.1, 0.2, 0.3 and 0.6 ng. unlabeled angiotensin I per ml. A control was also run in which no antiserum was added to the prereaction mixture. The procedure of Example 2 was followed, except that the temperature and period of incubation of the radioimmunoassay reaction were varied. The following combinations of time and temperature were utilized for these standard radioimmunoassay reactions: […]

angiotensinogen = assay: Plasma renin activity, as angiotensin I generation rate; format: biochemical, human
Experimental: Blood was drawn from patient three into a tube coated with EDTA and the plasma separated by centrifugation and cooled to 4°C. To one ml. of the cold plasma were added portions of 8-hydroxyquinoline inhibiting solution (10 μl) and dimercaprol inhibiting solution (10 μl). The resulting unknown plasma sample was transferred to a generation vial containing generation buffer solution and mixed.
The generation vial was placed in a water bath controlled at 37°C. and generation was carried out for 3 hours. At the end of this time, the generated unknown sample was removed from the water bath, cooled in an ice bath, and three 100 μl aliquots thereof transferred to three reaction vials to provide three generated unknown radioimmunoassay prereaction mixtures containing generated plasma, human serum albumin, sodium azide preservative, HCl, and ^125 I labeled angiotensin I.
The renin activity of patient three's plasma was indicated by the angiotensin I generation rate determined from the following relationship: [formula] The factor of 30 is used because the plasma is initially diluted three-fold, and only 0.1 ml of the dilute plasma is used in the radioimmunoassay, while the angiotensin I generation rate is based on 1 ml.
Another sample of patient three's plasma was assayed in the manner described in Example 2, except that 2,2-dimethyl glutaric acid was used in place of potassium acid phthalate as the buffering component of the generation mixture. Results of radioactivity counting on the base and generated radioimmunoassay reaction mixtures obtained in the assay of this example are set forth in Table IV.
Following the procedure described in Example 2, a renin activity radioimmunoassay was conducted on the plasma of patient two. The results of radioactive counting and the percent bound antigen for the duplicate standard radioimmunoassay reaction mixture are set forth in Tables V and VI.
Another sample of patient two's plasma was assayed in the manner described in Example 4, except that 2,2-dimethylglutaric acid was used in place of potassium acid phthalate as a buffering component of the generation mixture. Results of radioactive counting on the base and generated radioimmunoassay mixtures obtained in the assay of this example are set forth in Table VIII.
A renin activity radioimmunoassay was conducted on the plasma of patient one. The procedure described in Example 2 was followed except that only one set of reactions was carried out in establishing the standard curve. Results of radioactive counting and the percent bound antigen for the standard radioimmunoassay reaction mixtures are set forth in Table IX.
Another sample of patient one's plasma was assayed in the manner described in Example 6, except that 2,2-dimethylglutaric acid was used in place of potassium acid phthalate as the buffering component of the generation mixture. Results of radioactivity counting on the base and generated radioimmunoassay reaction mixtures, together with the angiotensin I content of the ungenerated and generated samples, are set forth in Table XI.

## Angiotensin I: decapeptide formed from angiotensinogen by renin; unlabeled standard in the radioimmunoassay (DRVYIHPFHL; Angiotensin-1; UniProt P01019 25-34, looked up)
[1]; 0.03 ng unlabeled angiotensin I standard, 12°C, 1 hour
  % Bound labeled angiotensin I: 38.3%
[1]; 0.03 ng unlabeled angiotensin I standard, 12°C, 5 hours
  % Bound labeled angiotensin I: 60.8%
[1]; 0.03 ng unlabeled angiotensin I standard, 20°C, 1 hour
  % Bound labeled angiotensin I: 46.52%
[1]; 0.03 ng unlabeled angiotensin I standard, 20°C, 5 hours
  % Bound labeled angiotensin I: 64.22%
[1]; 0.03 ng unlabeled angiotensin I standard, 37°C, 1 hour
  % Bound labeled angiotensin I: 56.33% and 55.20% and 54.06% and 54.27% and 56.75% and 54.34%
[1]; 0.06 ng unlabeled angiotensin I standard, 12°C, 1 hour
  % Bound labeled angiotensin I: 36.6%
[1]; 0.06 ng unlabeled angiotensin I standard, 12°C, 5 hours
  % Bound labeled angiotensin I: 52.9%
[1]; 0.06 ng unlabeled angiotensin I standard, 20°C, 1 hour
  % Bound labeled angiotensin I: 43.88%
[1]; 0.06 ng unlabeled angiotensin I standard, 20°C, 5 hours
  % Bound labeled angiotensin I: 62.08%
[1]; 0.06 ng unlabeled angiotensin I standard, 37°C, 1 hour
  % Bound labeled angiotensin I: 50.77% and 53.62% and 49.30% and 49.16% and 52.76% and 49.86%
[1]; 0.08 ng unlabeled angiotensin I standard, 12°C, 1 hour
  % Bound labeled angiotensin I: 34.7%
[1]; 0.08 ng unlabeled angiotensin I standard, 12°C, 5 hours
  % Bound labeled angiotensin I: 50.4%
[1]; 0.08 ng unlabeled angiotensin I standard, 20°C, 1 hour
  % Bound labeled angiotensin I: 37.90%
[1]; 0.08 ng unlabeled angiotensin I standard, 20°C, 5 hours
  % Bound labeled angiotensin I: 53.73%
[1]; 0.08 ng unlabeled angiotensin I standard, 37°C, 1 hour
  % Bound labeled angiotensin I: 49.01% and 48.63% and 48.16% and 48.27% and 48.93% and 45.64%
[1]; 0.1 ng unlabeled angiotensin I standard, 12°C, 1 hour
  % Bound labeled angiotensin I: 34.3%
[1]; 0.1 ng unlabeled angiotensin I standard, 12°C, 5 hours
  % Bound labeled angiotensin I: 47.5%
[1]; 0.1 ng unlabeled angiotensin I standard, 20°C, 1 hour
  % Bound labeled angiotensin I: 40.23%
[1]; 0.1 ng unlabeled angiotensin I standard, 20°C, 5 hours
  % Bound labeled angiotensin I: 50.27%
[1]; 0.1 ng unlabeled angiotensin I standard, 37°C, 1 hour
  % Bound labeled angiotensin I: 45.93% and 45.19% and 45.21% and 43.12% and 46.72% and 42.96%
[1]; 0.2 ng unlabeled angiotensin I standard, 12°C, 1 hour
  % Bound labeled angiotensin I: 27.2%
[1]; 0.2 ng unlabeled angiotensin I standard, 12°C, 5 hours
  % Bound labeled angiotensin I: 34.1%
[1]; 0.2 ng unlabeled angiotensin I standard, 20°C, 1 hour
  % Bound labeled angiotensin I: 31.21%
[1]; 0.2 ng unlabeled angiotensin I standard, 20°C, 5 hours
  % Bound labeled angiotensin I: 32.23%
[1]; 0.2 ng unlabeled angiotensin I standard, 37°C, 1 hour
  % Bound labeled angiotensin I: 35.75% and 35.05% and 29.50% and 28.39% and 34.97% and 30.79%
[1]; 0.3 ng unlabeled angiotensin I standard, 12°C, 1 hour
  % Bound labeled angiotensin I: 25.8%
[1]; 0.3 ng unlabeled angiotensin I standard, 12°C, 5 hours
  % Bound labeled angiotensin I: 24.4%
[1]; 0.3 ng unlabeled angiotensin I standard, 20°C, 1 hour
  % Bound labeled angiotensin I: 23.71%
[1]; 0.3 ng unlabeled angiotensin I standard, 20°C, 5 hours
  % Bound labeled angiotensin I: 25.25%
[1]; 0.3 ng unlabeled angiotensin I standard, 37°C, 1 hour
  % Bound labeled angiotensin I: 29.47% and 31.32% and 28.06% and 26.30% and 27.55% and 27.52%
[1]; 0.6 ng unlabeled angiotensin I standard, 12°C, 1 hour
  % Bound labeled angiotensin I: 15.9%
[1]; 0.6 ng unlabeled angiotensin I standard, 12°C, 5 hours
  % Bound labeled angiotensin I: 16.6%
[1]; 0.6 ng unlabeled angiotensin I standard, 20°C, 1 hour
  % Bound labeled angiotensin I: 15.54%
[1]; 0.6 ng unlabeled angiotensin I standard, 20°C, 5 hours
  % Bound labeled angiotensin I: 15.0%
[1]; 0.6 ng unlabeled angiotensin I standard, 37°C, 1 hour
  % Bound labeled angiotensin I: 17.21% and 16.50% and 17.98% and 17.40% and 17.61% and 16.72%

B1: Renin: proteolytic enzyme secreted by juxtaglomerular cells in the kidney (protein, UniProt P00797 67-406, looked up)
Renin: LTLGNTTSSVILTNYMDTQYYGEIGIGTPPQTFKVVFDTGSSNVWVPSSKCSRLYTACVYHKLFDASDSSSYKHNGTELTLRYSTGTVSGFLSQDIITVGGITVTQMFGEVTEMPALPFMLAEFDGVVGMGFIEQAIGRVTPIFDNIISQGVLKEDVFSFYYNRDSENSQSLGGQIVLGGSDPQHYEGNFHYINLIKTGVWQIQMKGVSVGSSTLLCEDGCLALVDTGASYISGSTSSIEKLMEALGAKKRLFDYVVKCNEGPTLPDISFHLGGKEYTLTSADYVFQESYSSKKLCTLAIHAMDIPPPTGPTWALGATFIRKFYTEFDRRNNRIGFALAR
angiotensinogen; patient one plasma, glutarate generation buffer
  Renin activity: 1.31 ng/mL/h
angiotensinogen; patient one plasma, phthalate generation buffer
  Renin activity: 0.849 ng/mL/h
angiotensinogen; patient three plasma, glutarate generation buffer
  Renin activity: 0.7 ng angiotensin I/ml/hr
angiotensinogen; patient three plasma, phthalate generation buffer
  Renin activity: 0.42 ng/mL/h
angiotensinogen; patient two plasma, glutarate generation buffer
  Renin activity: 2.91 ng/mL/h
angiotensinogen; patient two plasma, phthalate generation buffer
  Renin activity: 1.41 ng Angiotensin I/ml/hr

From patent US3966896A, “Radioimmunoassay for plasma renin activity” (Mallinckrodt, Inc., priority 1974, dated 1976)
